In US5215983A, “Carbapenem compounds” (Fujisawa Pharmaceutical Co., Ltd., priority 1989, dated 1993):

Tested on: P. aeruginosa 2
Assay: in vitro Antimicrobial Activity (two-fold agar-plate dilution method)
Format: cell-based
Settings: Pseudomonas aeruginosa, 10^6 viable cells per ml, heart infusion agar, 37° C. for 20 hours, read-out: MIC (minimal inhibitory concentration)
Procedure: in vitro Antimicrobial Activity was determined by the two-fold agar-plate dilution method as described blow.
One loopful of an overnight culture of a test strain in Trypticase-soy broth (10^6 viable cells per ml) was streaked on heart infusion agar (HI-agar) containing graded concentrations of the test compound, and the minimal inhibitory concentration (MIC) was expressed in terms of μg/ml after incubation at 37° C. for 20 hours.

MIC: 0.39 µg/mL
SMILES: C[C@@H](O)[C@H]1C(=O)N2C(C(=O)O)=C(S[C@@H]3CN[C@H](CN4CCCn5c4cc[n+]5C)C3)[C@H](C)[C@H]12 [Example 1-3, (4R,5S,6S)-6-[(1R)-1-hydroxyethyl]-4-methyl-3-[(2S,4S)-2-{1-methyl-4,5,6,7-tetrahydro-4-pyrazolo[1,5-a]pyrimidinio}methylpyrrolidin-4-yl]thio-7-oxo-1-azabicyclo[3.2.0]-hept-2-ene-2-carboxylic acid chloride]
